Where no end group is shown, it is not given here. The star is where a group is joined. 5FAM = O=C1OC2(c3ccc(O)cc3Oc3cc(O)ccc32)c2ccc(C(=O)*)cc21
How the values were obtained:
[1] = system: anti-FLAG M2 monoclonal antibody; test: FPA analysis of FLAG model peptide tracers with anti-FLAG antibody; format: binding; conditions: TBS pH 7.2
Excerpt: The FLAG peptide (a well known tag, e.g. used for immuno affinity purification) was used as a model peptide to develop a labelling strategy for peptide tracers which allows chemical linking of a fluorophore to the peptide to reduce or inhibit rotation of the fluorophore relative to the peptide. The FLAG peptide and an elongated FLAG peptide were used to and coupled to 5-Carboxyfluorescein (5-CF) with a linker containing the following amino acid composition
FPA analysis of the FLAG Model peptide shown in Table 1 was performed by the following procedure.
The FLAG Model peptide tracers were diluted in TBS (containing 25 mM Tris, 0.15M NaCl, NP40 0.05%, pH 7.2) at a concentration of 8.1 nM or 2.7 nM, respectively in a single well of a black colored 96-well plate. The plate was incubated for 2 minutes at room temperature on an orbital shaker set at 1350 rpm and then incubated for another minute without shaking. Blank measurement of the sample was then performed by reading the fluorescence polarisation in a fluorescence reader (Safir2, Tecan, Switzerland) with excitation and emission wavelength set at 470 nm and 520 nm, respectively.
Then, 1, 3 or 10 molar equivalence of the anti-FLAG M2 monoclonal antibody (Sigma, Switzerland), respectively, were added and the plate was incubated at room temperature with shaking (1350 rpm) for 3 minutes and then for an additional minute without shaking. Then the plate was measured.
(§1) The mP values were calculated according to the following formula: […]
(§2) The ΔmP values were obtained by subtracting the mP values of the negative serum from the positive sera:
ΔmP=mPpositive serum−mPnegative serum

[2] = system: Trichinella positive serum (antibodies against Trichinella); test: FPA discrimination between Trichinella positive and Trichinella negative serum; format: binding; conditions: mP positive serum minus mP negative serum; tracer 5 nM; buffer differs per tracer as listed in Table 2
Procedure: Table 2 depicts for some of the Trichinella peptides their ability to discriminate between a Trichinella positive and a Trichinella negative serum sample using fluorescence polarisation assay (FPA).
FPA analysis of the tracers shown in Table 2 was performed by the following procedure. A […] aliquot of the positive or negative serum was diluted with […] of buffer (PBS with detergent as indicated in Table 2) in a single well of a black coloured 96-well plate. The plate was incubated for 2 minutes at room temperature on an orbital shaker set at 1350 rpm and then incubated for another minute without shaking. Blank measurement of the sample was then performed by reading the fluorescence polarisation in a fluorescence reader (Safire2, Tecan, Switzerland) with excitation and emission wavelength set at 470 nm and 520 nm, respectively. Then, […] tracer was added to the reaction mixture to a final concentration of 5 nM and the plate was incubated at room temperature with shaking (1350 rpm) for 15 minutes and then for an additional minute without shaking. Then the plate was measured.
as §1, §2
ΔmP=mPpositive serum=mPnegative serum

[3] = system: Trichinella positive sera (antibodies against Trichinella); test: ELISA discrimination between Trichinella positive and negative serum using SS2 peptides; format: binding, pig; conditions: peptide-coated plate; serial two fold dilutions of serum; read at 405 nm; FIGS. 8a and b
Procedure: FIGS. 8a and b show the results of 2 of the preferred SS2 peptides (SEQ IDs NO 7 and 8) tested in ELISA assays. […] Serial two fold dilutions of the serum sample were tested.
Single wells of a 96-well microtitre plate were coated with the SS2 peptides ([…]) at a concentration of […] in carbonate buffer 0.1 M (pH 9.5) overnight at 4° C. The plate was washed 4 times with 0.05% Tween 80 and then blocked with a PBS buffer containing 2% I-block and 0.1% Tween 20 for 90 minutes at 25° C.±3° C. Pig sera were diluted 50-fold in phosphate buffered saline and serial 2-fold dilutions were incubated in the microtitre plate with shaking (500 rpm) for 2 hours at room temperature. The plates were washed 4 times with 0.05% Tween 80 Detection of the bound antibodies was performed by incubation with a goat anti-pig IgG(Fc)-POD conjugate (Bethyl Laboratories, USA) at a concentration of 1.3 ug/ml for 1 h at RT with shaking (500 rpm). Following four more washes, 2′-azino-bis(3-ethylbenzthiazoline-6-sulphonic acid) (ABTS) substrate solution was added and incubated for 30 minutes, colour development was measured in a ELISA reader (Tecan, Switzerland) at a wavelength of 405 nm.

[4] = target: 5-CF-Pro-Gly(9)-FLAG; test: fluorescence polarisation assay; tracer 2.7 nM, 1 molar equivalent of antibody
[5] = target: 5-CF-Trp(2)-Gly(9)-FLAG; test: as above
[6] = target: 5-CF-Trp-Gly(9)-FLAG; test: as above
[7] = target: 5-CF-Pro-Gly(9)-FLAG; test: fluorescence polarisation assay; tracer 8.1 nM, 1 molar equivalent of antibody
[8] = target: 5-CF-Trp(2)-Gly(9)-FLAG; test: as above
[9] = target: 5-CF-Trp-Gly(9)-FLAG; test: as above
[10] = target: 5-CF-Pro-Gly(9)-FLAG; test: fluorescence polarisation assay; tracer 2.7 nM, 3 molar equivalents of antibody
[11] = target: 5-CF-Trp(2)-Gly(9)-FLAG; test: as above
[12] = target: 5-CF-Trp-Gly(9)-FLAG; test: as above
[13] = target: 5-CF-Pro-Gly(9)-FLAG; test: fluorescence polarisation assay; tracer 8.1 nM, 3 molar equivalents of antibody
[14] = target: 5-CF-Trp(2)-Gly(9)-FLAG; test: as above
[15] = target: 5-CF-Trp-Gly(9)-FLAG; test: as above
[16] = target: 5-CF-Pro-Gly(9)-FLAG; test: fluorescence polarisation assay; tracer 2.7 nM, 10 molar equivalents of antibody
[17] = target: 5-CF-Trp(2)-Gly(9)-FLAG; test: as above
[18] = target: 5-CF-Trp-Gly(9)-FLAG; test: as above
[19] = target: 5-CF-Pro-Gly(9)-FLAG; test: fluorescence polarisation assay; tracer 8.1 nM, 10 molar equivalents of antibody
[20] = target: 5-CF-Trp(2)-Gly(9)-FLAG; test: as above
[21] = target: 5-CF-Trp-Gly(9)-FLAG; test: as above
[22] = tracer 2.7 nM, 1 molar equivalent anti-FLAG antibody
[23] = tracer 2.7 nM, 3 molar equivalents anti-FLAG antibody
[24] = tracer 2.7 nM, 10 molar equivalents anti-FLAG antibody
[25] = tracer 8.1 nM, 1 molar equivalent anti-FLAG antibody
[26] = tracer 8.1 nM, 3 molar equivalents anti-FLAG antibody
[27] = tracer 8.1 nM, 10 molar equivalents anti-FLAG antibody

5-CF-Pro-Gly(9)-Asp-Tyr-Lys-Asp-Asp-Asp-Asp-Lys [S-CF-Pro-Gly(9)-FLAG]
ΔmP values [1, 22]: 5 mP | ΔmP values [1, 23]: 15 mP | ΔmP values [1, 24]: 33 mP | ΔmP values [1, 25]: 14 mP | ΔmP values [1, 26]: 33 mP | ΔmP values [1, 27]: 62 mP

5-CF-Trp(2)-Gly(9)-Asp-Tyr-Lys-Asp-Asp-Asp-Asp-Lys (5FAM-WWGGGGGGGGGDYKDDDDK) [5-CF-Trp(2)-Gly(9)-FLAG, FLAG model peptide tracer coupled to 5-Carboxyfluorescein via Trp-Trp linker]
ΔmP values [1, 22]: 5 mP | ΔmP values [1, 23]: 35 mP | ΔmP values [1, 24]: 97 mP | ΔmP values [1, 25]: 37 mP | ΔmP values [1, 26]: 78 mP | ΔmP values [1, 27]: 124 mP

5-CF-Trp-Gly(9)-Asp-Tyr-Lys-Asp-Asp-Asp-Asp-Lys (5FAM-WGGGGGGGGGDYKDDDDK) [5-CF-Trp-Gly(9)-FLAG, FLAG model peptide tracer coupled to 5-Carboxyfluorescein via Trp linker]
ΔmP values [1, 22]: 9 mP | ΔmP values [1, 23]: 27 mP | ΔmP values [1, 24]: 55 mP | ΔmP values [1, 25]: 19 mP | ΔmP values [1, 26]: 50 mP | ΔmP values [1, 27]: 86 mP

ALRLKRFAK (listed as Trichinella spiralis) [SEQ ID NO 28, peptide of Trichinella spiralis 53 kDa excretory/secretory antigen]
ΔmP [2]: 41 mP

KEADKSALRLKRFAKPPKGFF (KEADKSALRLKRFAKPPKGFF; listed as Trichinella spiralis) [SEQ ID NO 27, peptide of Trichinella spiralis 53 kDa excretory/secretory antigen]
ΔmP [2]: 31 mP

KPFGDEIDRI LRKAF (KPFGDEIDRILRKAF; listed as Trichinella spiralis) [SEQ ID NO 26, peptide of Trichinella spiralis 53 kDa excretory/secretory antigen]
ΔmP [2]: 31 mP

LSTASRPTNPYTGSRPTSPSSGSRP (LSTASRPTNPYTGSRPTSPSSGSRP; listed as Trichinella spiralis) [SEQ ID NO 7, peptide of Trichinella spiralis newborn larvae-specific protein SS2]
ΔmP [2]: 20 mP | ability to discriminate between negative and positive sera in ELISA [3]: able to discriminate between negative and positive sera

MHKITHKSIVSRHTFAVYLLVSGQK (MHKITHKSIVSRHTFAVYLLVSGQK; listed as Trichinella spiralis) [SEQ ID NO 5, peptide of Trichinella spiralis newborn larvae-specific protein SS2; used as FPA tracer]
ΔmP [2]: 39 mP

NNYRGRQGIA GLGML (NNYRGRQGIAGLGML; listed as Trichinella spiralis) [SEQ ID NO 23, peptide of Trichinella spiralis 53 kDa excretory/secretory antigen]
ΔmP [2]: 23 mP

PTYPSSGSRP TYPSSGSRP (PTYPSSGSRPTYPSSGSRP; listed as Trichinella spiralis) [SEQ ID NO 9, peptide of Trichinella spiralis newborn larvae-specific protein SS2]
ΔmP [2]: 66 mP

PTYPSSGSRPTYPSSGSRPTYPYTG (PTYPSSGSRPTYPSSGSRPTYPYTG; listed as Trichinella spiralis) [SEQ ID NO 8, peptide of Trichinella spiralis newborn larvae-specific protein SS2]
ΔmP [2]: 66 mP | ability to discriminate between negative and positive sera in ELISA [3]: able to discriminate between negative and positive sera

QNERQFDENK LKKLLKPLG (QNERQFDENKLKKLLKPLG; listed as Trichinella spiralis) [SEQ ID NO 20, peptide of Trichinella spiralis 53 kDa excretory/secretory antigen]
ΔmP [2]: 28 mP

QNERQFDENKLKKLLKPLGKLYKTPSD (QNERQFDENKLKKLLKPLGKLYKTPSD; listed as Trichinella spiralis) [SEQ ID NO 19, peptide of Trichinella spiralis 53 kDa excretory/secretory antigen]
ΔmP [2]: 33 mP

VGGTDVRPHSH PWQIQLLKSET G (VGGTDVRPHSHPWQIQLLKSETG; listed as Trichinella spiralis) [SEQ ID NO 6, peptide of Trichinella spiralis newborn larvae-specific protein SS2; used as FPA tracer]
ΔmP [2]: 35 mP

VVTIFRKNGK TTEVLSL (VVTIFRKNGKTTEVLSL; listed as Trichinella spiralis) [SEQ ID NO 24, peptide of Trichinella spiralis 53 kDa excretory/secretory antigen]
ΔmP [2]: 57 mP

VVYSKTSSSR LEMYGSF (VVYSKTSSSRLEMYGSF; listed as Trichinella spiralis) [SEQ ID NO 16, peptide of Trichinella spiralis 43 kDa secreted glycoprotein]
ΔmP [2]: 20 mP

anti-FLAG M2 monoclonal antibody (Sigma, Switzerland)
ΔmP [4]: 5 mP | ΔmP [5]: 5 mP | ΔmP [6]: 9 mP | ΔmP [7]: 14 mP | ΔmP [8]: 37 mP | ΔmP [9]: 19 mP | ΔmP [10]: 15 mP | ΔmP [11]: 35 mP | ΔmP [12]: 27 mP | ΔmP [13]: 33 mP | ΔmP [14]: 78 mP | ΔmP [15]: 50 mP | ΔmP [16]: 33 mP | ΔmP [17]: 97 mP | ΔmP [18]: 55 mP | ΔmP [19]: 62 mP | ΔmP [20]: 124 mP | ΔmP [21]: 86 mP

Source: patent US20100190182A1, “DIAGNOSTIC COMPOSITION AND METHOD FOR THE DETECTION OF A TRICHINELLA INFECTION” (priority 2007, published 2010)
